Data taken from patent US12723063B2, “GIPR-agonist compounds” (Eli Lilly and Company, priority 2019, dated 2026).
*1 amine or outer side, *2 acyl side, *3 side chain or, on linkers, in order; H or OH if unused. Where a SMILES comes first, the peptide text is derived from it. Side-chain parts run from the residue outwards. [ ]: non-standard residue; d: D form. The star is where a group is joined. C20 diacid = O=C(O)CCCCCCCCCCCCCCCCCCC(=O)*; αMePhe(2-F) = C[C@](N)(Cc1ccccc1F)C(=O)O; γGlu = O=C(O)[C@H](CCC(=O)[*:2])N[*:1]; αMeF = C[C@](N)(Cc1ccccc1)C(=O)O; 4Pal = N[C@@H](Cc1ccncc1)C(=O)O; αMeL = CC(C)C[C@](C)(N)C(=O)O; AEEA = NCCOCCOCC(=O)O; Aib = CC(C)(N)C(=O)O

Assays:
Assay in all cases: cAMP functional assay (HTRF) in HEK293 cells in presence of 0.1% casein
Format in all cases: cell-based
[1] = target: T1, human glucose-dependent insulinotropic peptide receptor (GIPR) (Homo sapiens, UniProt P48546); conditions: HEK293 cells expressing human GIPR, geometric mean, read-out: hGIPR cAMP Rel EC50 nM (SEM, n)
T1 construct: expressed in transfected cells; host or cells: HEK293
T1 sequence (P48546 22-466): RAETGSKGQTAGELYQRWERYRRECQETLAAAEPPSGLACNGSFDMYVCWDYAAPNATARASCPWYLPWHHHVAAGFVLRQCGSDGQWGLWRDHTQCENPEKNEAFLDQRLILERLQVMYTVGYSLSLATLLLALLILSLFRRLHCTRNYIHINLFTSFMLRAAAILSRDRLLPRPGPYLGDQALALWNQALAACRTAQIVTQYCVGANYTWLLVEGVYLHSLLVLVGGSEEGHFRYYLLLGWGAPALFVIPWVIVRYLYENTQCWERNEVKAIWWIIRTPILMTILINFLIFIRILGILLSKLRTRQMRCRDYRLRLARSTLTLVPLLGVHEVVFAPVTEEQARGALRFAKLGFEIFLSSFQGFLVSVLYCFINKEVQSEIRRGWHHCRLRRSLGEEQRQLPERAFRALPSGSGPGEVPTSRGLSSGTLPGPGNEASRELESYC

[2] = target: T2, human glucagon receptor (GcgR) (Homo sapiens, UniProt P47871); conditions: HEK293 cells expressing human GcgR, geometric mean, read-out: hGcgR cAMP Rel EC50 nM (SEM, n)
T2 construct: expressed in transfected cells; host or cells: HEK293
T2 sequence (P47871 26-477): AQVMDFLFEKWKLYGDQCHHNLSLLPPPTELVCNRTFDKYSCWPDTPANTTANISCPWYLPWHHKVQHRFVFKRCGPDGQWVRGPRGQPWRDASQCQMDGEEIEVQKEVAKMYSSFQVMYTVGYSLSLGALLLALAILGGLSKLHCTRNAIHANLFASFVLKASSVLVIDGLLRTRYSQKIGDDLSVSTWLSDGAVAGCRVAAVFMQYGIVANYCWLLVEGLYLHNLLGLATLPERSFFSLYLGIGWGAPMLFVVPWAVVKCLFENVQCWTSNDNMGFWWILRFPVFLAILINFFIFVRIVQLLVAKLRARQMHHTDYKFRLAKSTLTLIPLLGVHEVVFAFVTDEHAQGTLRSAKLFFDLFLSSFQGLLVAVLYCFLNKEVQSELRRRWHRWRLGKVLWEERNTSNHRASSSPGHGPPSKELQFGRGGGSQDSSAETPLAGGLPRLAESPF

[3] = target: T3, human GLP-1 receptor (GLP-1R) (Homo sapiens, UniProt P43220); conditions: HEK293 cells expressing human GLP-1R, geometric mean, read-out: hGLP1R cAMP Rel EC50 nM (SEM, n)
T3 construct: expressed in transfected cells; host or cells: HEK293
T3 sequence (P43220 24-463): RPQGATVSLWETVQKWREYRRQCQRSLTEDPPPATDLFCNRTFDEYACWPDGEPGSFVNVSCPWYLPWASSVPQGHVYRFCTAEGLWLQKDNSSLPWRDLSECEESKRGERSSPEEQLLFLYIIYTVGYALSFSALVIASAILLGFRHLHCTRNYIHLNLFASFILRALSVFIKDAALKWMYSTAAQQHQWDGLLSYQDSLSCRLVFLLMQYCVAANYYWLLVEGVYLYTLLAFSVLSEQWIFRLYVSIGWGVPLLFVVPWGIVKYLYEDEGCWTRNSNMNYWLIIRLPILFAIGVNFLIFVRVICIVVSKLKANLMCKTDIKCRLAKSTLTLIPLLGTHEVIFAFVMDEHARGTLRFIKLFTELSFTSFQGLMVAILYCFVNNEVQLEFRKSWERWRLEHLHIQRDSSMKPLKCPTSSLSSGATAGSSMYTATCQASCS

`CC[C@H](C)[C@H](NC(=O)[C@H](CO)NC(=O)[C@H](Cc1ccc(O)cc1)NC(=O)[C@H](CC(=O)O)NC(=O)[C@H](CO)NC(=O)[C@@H](NC(=O)[C@](C)(Cc1ccccc1)NC(=O)[C@@H](NC(=O)CNC(=O)[C@H](CCC(=O)O)NC(=O)C(C)(C)NC(=O)[C@@H](N)Cc1ccc(O)cc1)[C@@H](C)O)[C@@H](C)CC)C(=O)N[C@@](C)(CC(C)C)C(=O)N[C@@H](CC(C)C)C(=O)N[C@@H](CC(=O)O)C(=O)N[C@@H](CCCCN)C(=O)N[C@@H](CCCCNC(=O)COCCOCCNC(=O)COCCOCCNC(=O)CC[C@H](NC(=O)CCCCCCCCCCCCCCCCCCC(=O)O)C(=O)O)C(=O)N[C@@H](Cc1c[nH]cn1)C(=O)N[C@@H](CCC(N)=O)C(=O)NC(C)(C)C(=O)N[C@@H](CC(=O)O)C(=O)N[C@@H](Cc1ccccc1)C(=O)N[C@H](C(=O)N[C@@H](CCC(=O)O)C(=O)N[C@@H](Cc1ccncc1)C(=O)N[C@@H](CC(C)C)C(=O)N[C@@H](CC(C)C)C(=O)N[C@@H](C)C(=O)NCC(=O)NCC(=O)N1CCC[C@H]1C(=O)N[C@@H](CO)C(=O)N[C@@H](CO)C(=O)NCC(=O)N[C@@H](C)C(=O)N1CCC[C@H]1C(=O)N1CCC[C@H]1C(=O)N1CCC[C@H]1C(=O)N[C@@H](CO)C(N)=O)C(C)C` [Example 50] (H-Y[Aib]EGT[αMeF]ISDYSI[αMeL]LDKK([AEEA-AEEA-γGlu-C20 diacid])HQ[Aib]DFVE[4Pal]LLAGGPSSGAPPPS-NH2) was tested, and the EC50 [1] was 0.0212 nM, the EC50 [2] was 371 nM and the EC50 [3] was 41 nM.
`CC[C@H](C)[C@H](NC(=O)[C@H](Cc1ccccc1)NC(=O)[C@@H](NC(=O)CNC(=O)[C@H](CCC(=O)O)NC(=O)C(C)(C)NC(=O)[C@@H](N)Cc1ccc(O)cc1)[C@@H](C)O)C(=O)N[C@@H](CO)C(=O)N[C@@H](CC(=O)O)C(=O)N[C@@H](Cc1ccc(O)cc1)C(=O)N[C@@H](CO)C(=O)N[C@H](C(=O)N[C@@](C)(CC(C)C)C(=O)N[C@@H](CC(C)C)C(=O)N[C@@H](CC(=O)O)C(=O)N[C@@H](CCCCN)C(=O)N[C@@H](CCCCNC(=O)COCCOCCNC(=O)COCCOCCNC(=O)CC[C@H](NC(=O)CCCCCCCCCCCCCCCCCCC(=O)O)C(=O)O)C(=O)N[C@@H](Cc1c[nH]cn1)C(=O)N[C@@H](CCC(N)=O)C(=O)NC(C)(C)C(=O)N[C@@H](CCC(=O)O)C(=O)N[C@@H](Cc1ccccc1)C(=O)N[C@H](C(=O)N[C@@H](CCC(=O)O)C(=O)N[C@@H](Cc1ccc(O)cc1)C(=O)N[C@@H](CC(C)C)C(=O)N[C@@H](CC(C)C)C(=O)N[C@@H](CCC(=O)O)C(=O)N[C@H](C(=O)NCC(=O)N1CCC[C@H]1C(=O)N[C@@H](CO)C(=O)N[C@@H](CO)C(=O)NCC(=O)N[C@@H](C)C(=O)N1CCC[C@H]1C(=O)N1CCC[C@H]1C(=O)N1CCC[C@H]1C(=O)N[C@@H](CO)C(N)=O)[C@@H](C)O)C(C)C)[C@@H](C)CC` [Example 64] (H-Y[Aib]EGTFISDYSI[αMeL]LDKK([AEEA-AEEA-γGlu-C20 diacid])HQ[Aib]EFVEYLLETGPSSGAPPPS-NH2) gave an EC50 [1] of 0.0448 nM, an EC50 [2] of 3070 nM and an EC50 [3] greater than 5000 nM.
Work on `CC[C@H](C)[C@H](NC(=O)[C@H](CO)NC(=O)[C@H](Cc1ccc(O)cc1)NC(=O)[C@H](CC(=O)O)NC(=O)[C@H](CO)NC(=O)[C@@H](NC(=O)[C@](C)(Cc1ccccc1F)NC(=O)[C@@H](NC(=O)CNC(=O)[C@H](CCC(=O)O)NC(=O)C(C)(C)NC(=O)[C@@H](N)Cc1ccc(O)cc1)[C@@H](C)O)[C@@H](C)CC)C(=O)N[C@@H](C)C(=O)N[C@@H](CC(C)C)C(=O)N[C@@H](CC(=O)O)C(=O)N[C@@H](CCCCN)C(=O)N[C@@H](CCCCNC(=O)COCCOCCNC(=O)COCCOCCNC(=O)CC[C@H](NC(=O)CCCCCCCCCCCCCCCCCCC(=O)O)C(=O)O)C(=O)N[C@@H](Cc1c[nH]cn1)C(=O)N[C@@H](CCC(N)=O)C(=O)NC(C)(C)C(=O)N[C@@H](CCC(=O)O)C(=O)N[C@@H](Cc1ccccc1)C(=O)N[C@H](C(=O)N[C@@H](CC(N)=O)C(=O)N[C@@H](Cc1ccc(O)cc1)C(=O)N[C@@H](CC(C)C)C(=O)N[C@@H](CC(C)C)C(=O)N[C@@H](C)C(=O)N[C@H](C(=O)NCC(=O)N1CCC[C@H]1C(=O)N[C@@H](CO)C(=O)N[C@@H](CO)C(=O)NCC(=O)N[C@@H](C)C(=O)N1CCC[C@H]1C(=O)N1CCC[C@H]1C(=O)N1CCC[C@H]1C(=O)N[C@@H](CO)C(N)=O)[C@@H](C)O)C(C)C` [Example 34] (H-Y[Aib]EGT[αMePhe(2-F)]ISDYSIALDKK([AEEA-AEEA-γGlu-C20 diacid])HQ[Aib]EFVNYLLATGPSSGAPPPS-NH2) yielded an EC50 [1] of 0.0177 nM, an EC50 [2] of 913 nM and an EC50 [3] of 462 nM.
In the case of `CC[C@H](C)[C@H](NC(=O)[C@H](Cc1ccccc1)NC(=O)[C@@H](NC(=O)CNC(=O)[C@H](CCC(=O)O)NC(=O)C(C)(C)NC(=O)[C@@H](N)Cc1ccc(O)cc1)[C@@H](C)O)C(=O)N[C@@H](CO)C(=O)N[C@@H](CC(=O)O)C(=O)N[C@@H](Cc1ccc(O)cc1)C(=O)N[C@@H](CO)C(=O)N[C@H](C(=O)N[C@@](C)(CC(C)C)C(=O)N[C@@H](CC(C)C)C(=O)N[C@@H](CC(=O)O)C(=O)N[C@@H](CCCCN)C(=O)N[C@@H](CCCCNC(=O)COCCOCCNC(=O)COCCOCCNC(=O)CC[C@H](NC(=O)CCCCCCCCCCCCCCCCCCC(=O)O)C(=O)O)C(=O)N[C@@H](Cc1c[nH]cn1)C(=O)N[C@@H](CCC(N)=O)C(=O)NC(C)(C)C(=O)N[C@@H](CCC(=O)O)C(=O)N[C@@H](Cc1ccccc1)C(=O)N[C@H](C(=O)N[C@@H](CCC(=O)O)C(=O)N[C@@H](Cc1ccncc1)C(=O)N[C@@H](CC(C)C)C(=O)N[C@@H](CC(C)C)C(=O)N[C@@H](C)C(=O)N[C@H](C(=O)NCC(=O)N1CCC[C@H]1C(=O)N[C@@H](CO)C(=O)N[C@@H](CO)C(=O)NCC(=O)N[C@@H](C)C(=O)N1CCC[C@H]1C(=O)N1CCC[C@H]1C(=O)N1CCC[C@H]1C(=O)N[C@@H](CO)C(N)=O)[C@@H](C)O)C(C)C)[C@@H](C)CC` [Example 58] (H-Y[Aib]EGTFISDYSI[αMeL]LDKK([AEEA-AEEA-γGlu-C20 diacid])HQ[Aib]EFVE[4Pal]LLATGPSSGAPPPS-NH2), the EC50 [1] is reported as 0.0183 nM, the EC50 [2] is reported as greater than 5000 nM and the EC50 [3] is reported as greater than 5000 nM.
In the case of `CC[C@H](C)[C@H](NC(=O)[C@H](Cc1ccccc1)NC(=O)[C@@H](NC(=O)CNC(=O)[C@H](CCC(=O)O)NC(=O)C(C)(C)NC(=O)[C@@H](N)Cc1ccc(O)cc1)[C@@H](C)O)C(=O)N[C@@H](CO)C(=O)N[C@@H](CC(=O)O)C(=O)N[C@@H](Cc1ccc(O)cc1)C(=O)N[C@@H](CO)C(=O)N[C@H](C(=O)N[C@@](C)(CC(C)C)C(=O)N[C@@H](CC(C)C)C(=O)N[C@@H](CC(=O)O)C(=O)N[C@@H](CCCCN)C(=O)N[C@@H](CCCCNC(=O)COCCOCCNC(=O)COCCOCCNC(=O)CC[C@H](NC(=O)CCCCCCCCCCCCCCCCCCC(=O)O)C(=O)O)C(=O)N[C@@H](Cc1c[nH]cn1)C(=O)N[C@@H](CCC(N)=O)C(=O)NC(C)(C)C(=O)N[C@@H](CC(=O)O)C(=O)N[C@@H](Cc1ccccc1)C(=O)N[C@H](C(=O)N[C@@H](CCC(=O)O)C(=O)N[C@@H](Cc1ccc(O)cc1)C(=O)N[C@@H](CC(C)C)C(=O)N[C@@H](CC(C)C)C(=O)N[C@@H](C)C(=O)NCC(=O)NCC(=O)N1CCC[C@H]1C(=O)N[C@@H](CO)C(=O)N[C@@H](CO)C(=O)NCC(=O)N[C@@H](C)C(=O)N1CCC[C@H]1C(=O)N1CCC[C@H]1C(=O)N1CCC[C@H]1C(=O)N[C@@H](CO)C(N)=O)C(C)C)[C@@H](C)CC` [Example 53] (H-Y[Aib]EGTFISDYSI[αMeL]LDKK([AEEA-AEEA-γGlu-C20 diacid])HQ[Aib]DFVEYLLAGGPSSGAPPPS-NH2), the EC50 [1] is reported as 0.0194 nM, the EC50 [2] is reported as 344 nM and the EC50 [3] is reported as greater than 5000 nM.
